According to ChEMBL document CHEMBL6096680, “Development of PRC1 Inhibitors Employing Fragment-Based Approach and NMR-Guided Optimization” (J Med Chem, 2025):
The source made the active and inactive calls. No cut-off for these calls is given here.

Key:
Homo sapiens [1] = species on record: Homo sapiens; test: Binding affinity to 15N-labeled RING1B (10 to 116 residues)/BMI1 (1 to 104 residues) (unknown origin) extracted from Escherichia coli BL21 (DE3) cells assessed as sum of A79, G83 and T89 chemical shift perturbations at 100 uM by NMR binding analysis
Homo sapiens [2] = species on record: Homo sapiens; test: Binding affinity to 15N-labeled RING1B (10 to 116 residues)/BMI1 (1 to 104 residues) (unknown origin) extracted from Escherichia coli BL21 (DE3) cells assessed as sum of A79, G83 and T89 chemical shift perturbations at 200 uM by NMR binding analysis
Homo sapiens [3] = species on record: Homo sapiens; test: Binding affinity to 15N-labeled RING1B (10 to 116 residues)/BMI1 (1 to 104 residues) (unknown origin) extracted from Escherichia coli BL21 (DE3) cells assessed as ratio of chemical shift perturbations at 1:2 compound concentration ration by NMR binding analysis
[4] = Binding affinity to RING1B (10 to 116 residues)/BMI1 (1 to 104 residues) (unknown origin) extracted from Escherichia coli BL21 (DE3) cells assessed as dissociation constant by ITC analysis; parameters: species or system Homo sapiens
[5] = (§1) Inhibition of 6His-tagged RING1B (10 to 116 residues)/BMI1 (1 to 104 residues) (unknown origin) extracted from Escherichia coli BL21 (DE3) cells preincubated with compound for 1 hrs followed by 3-(1-(4,26-dioxo-30-((3aS,4S,6aR)-2-oxohexahydro-1H-thieno[3,4-d]imidazol-4-yl)-7,10,13,16,19,22-hexaoxa-3,25-diazatriacontyl)-6-methoxy-1H-indol-4-yl)-5-(6-fluoro-1H-indol-4-yl)-4-isopropyl-1H-pyrrole-2-carboxylic acid addition and measured after 1 hrs by Alphascreen competition assay; parameters: species or system Homo sapiens
[6] = (§2) Inhibition of RING1B (10 to 116 residues)-BMI1 (1 to 104 residues) (unknown origin) extracted from Escherichia coli BL21 (DE3) cells using HeLa nucleosome as substrate assessed as reduction in reduction in H2AK119 ubiquitination preincubated with compound for 1 hrs followed by flag-tagged ubiquitin and substrate addition and measured after 1 hrs by Western blot analysis; parameters: species or system Homo sapiens
[7] = as §1, with “RING1A (7” for “RING1B (10”, “113 residues)-BMI1” for “116 residues)/BMI1”; parameters: species or system Homo sapiens
Homo sapiens [8] = species on record: Homo sapiens; test: Binding affinity to 15N-labeled RING1A (7 to 113 residues)/BMI1 (1 to 104 residues) (unknown origin) extracted from Escherichia coli BL21 (DE3) cells assessed as chemical shift perturbation by 1H-15N HSQC spectra based NMR titration analysis; details: dose 30-120 µM
Homo sapiens [9] = species on record: Homo sapiens; test: Binding affinity to 15N-labeled RING1B (10 to 116 residues)/BMI1 (1 to 104 residues) (unknown origin) extracted from Escherichia coli BL21 (DE3) cells assessed as chemical shift perturbation by 1H-15N HSQC spectra based NMR titration analysis; details: dose 30-120 µM
Homo sapiens [10] = species on record: Homo sapiens; test: Binding affinity to 15N-labeled 6His-tagged RING1B (10 to 116 residues)/PCGF1 (30 to 138 residues) (unknown origin) assessed as chemical shift perturbation by 1H-15N HSQC spectra based NMR titration analysis; details: dose 30-120 µM
[11] = Binding affinity to RING1A (7 to 113 residues)/BMI1 (1 to 104 residues) (unknown origin) extracted from Escherichia coli BL21 (DE3) cells assessed as dissociation constant by ITC analysis; parameters: species or system Homo sapiens
[12] = Binding affinity to RING1B (10 to 116 residues)/PCGF1 (30 to 138 residues) (unknown origin) assessed as dissociation constant by ITC analysis; parameters: species or system Homo sapiens
[13] = as §2, with “RING1A (7” for “RING1B (10”, “113 residues)/BMI1” for “116 residues)-BMI1”; parameters: species or system Homo sapiens
[14] = as §2, with “residues)/PCGF1 (30” for “residues)-BMI1 (1”, “138 residues)(unknown” for “104 residues) (unknown”, “origin)” for “origin) extracted from Escherichia coli BL21 (DE3) cells”; parameters: species or system Homo sapiens
TEX [15] = test: Inhibition of PRC1 in human TEX cells assessed as decrease in global H2Aub level by measuring fold change at 3.1 uM incubated for 4 days by Western blot analysis (reference value: 1); assay type: cell-based; details: time 4.0 day
TEX [16] = test: Inhibition of PRC1 in human TEX cells assessed as decrease in global H2Aub level by measuring fold change at 6.2 uM incubated for 4 days by Western blot analysis (reference value: 1); assay type: cell-based; details: time 4.0 day
TEX [17] = test: Inhibition of PRC1 in human TEX cells assessed as decrease in global H2Aub level by measuring fold change at 12.5 uM incubated for 4 days by Western blot analysis (reference value: 1); assay type: cell-based; details: time 4.0 day
TEX [18] = test: Inhibition of PRC1 in human TEX cells assessed as decrease in global H2Aub level by measuring fold change at 25 uM incubated for 4 days by Western blot analysis (reference value: 1); assay type: cell-based; details: time 4.0 day
TEX [19] = test: Downregulation of CD34 gene expression in human TEX cells at 6.2 to 50 uM incubated for 4 days by RT-qPCR analysis; assay type: functional, cell-based; details: dose 6.2-50 µM, time 4.0 day
TEX [20] = test: Upregulation of CEBPalpha gene expression in human TEX cells at 6.2 to 50 uM incubated for 4 days by RT-qPCR analysis; assay type: functional, cell-based; details: dose 6.2-50 µM, time 4.0 day

## CC(C)c1c(-c2cc(F)cc3[nH]ccc23)[nH]c(C(=O)O)c1-c1c(Cl)ccc2[nH]ccc12
Homo sapiens [1]
  Activity: 248 Hz
Homo sapiens [2]
  Activity: 299 Hz
Homo sapiens [3]
  Ratio: 0.83
[4]
  Kd: 2000 nM
[5]
  IC50: 2300 nM
[6]
  IC50: 2800 nM
[7]
  IC50: 2400 nM
Homo sapiens [8]
  Activity: Dose-dependent-effect
Homo sapiens [9]
  Activity: Dose-dependent-effect
Homo sapiens [10]
  Activity: Dose-dependent-effect
[11]
  Kd: 1700 nM
[12]
  Kd: 1700 nM
[13]
  IC50: 2600 nM
[14]
  IC50: 1800 nM
TEX [15]
  fold change (FC): 1.7
TEX [16]
  fold change (FC): 0.9
TEX [17]
  fold change (FC): 0.88
TEX [18]
  fold change (FC): 0.17
TEX [19]
  Activity: Active
TEX [20]
  Activity: Active
